The source of these data is PubChem BioAssay (NCI).

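1) Cells in 96-well plates. 2) Compound, 48 h, 5 concentrations. 3) Linear interpolation between surrounding doses. 4) Unreached endpoint = highest concentration. TGI marks complete inhibition of growth.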

In one assay the test system is SN12C renal. Description: DTP human tumour cell line panel, 48 h.
As usually defined, the TGI is the concentration at which net growth stops. Consider `O=C(O)CO[C@@]12C#C/C=C\C#C[C@@H]3N(C(=O)Oc4ccccc4)c4ccccc4[C@]14O[C@@]34CCC2`, for which the TGI is greater than 100 µM.

`N[C@@H]1CCN(c2c(F)cc3c(=O)c(C(=O)O)cn4c3c2Oc2c-4ccc3c2ccc2ccccc23)C1`: the TGI was greater than 100 µM.

As to `COc1c(=O)cc2cc[nH]c3cc[nH]c1c23`, the concentration for total growth inhibition (TGI) is greater than 100 µM.

For the compound `CCCCC1(NN=C2CCCCC2)C(=O)N(c2ccccc2)N(c2ccccc2)C1=O`, the TGI is greater than 100 µM.

For the compound `Cc1nc2ccc(Br)cc2c(=O)n1-c1nnc(C(C)(C)C)s1`, the TGI is greater than 10 µM.

In turn, `Cc1ccc(C2(O)CSC(=NC34CC5CC(CC(C5)C3)C4)N2C(P(=O)(O)O)P(=O)(O)O)cc1` (stereo not given) gave a TGI greater than 100 µM.

In turn, `CCOC(=O)c1sc(=S)n(-c2ccc(Cl)cc2)c1-n1cc(-c2ccccc2)c(C#N)c1N` displayed a TGI of 69.7 µM.

Regarding `COC1(OC)N=C(N)C2(C#N)C(c3ccccc3)NC3=C(CCC3)C12C#N` (stereo not given), the TGI was greater than 100 µM.

`COC(=O)[C@@H]1C[C@H]2OC(=O)CC[C@]2(C)O[C@H]1[C@H]1O[C@@](C)(O)CCC[C@H]1C` had a TGI greater than 50 µM.

The compound `CN(/N=C/c1ccc(C(=O)O)cc1)C1=NCCCCN1` came in with a TGI greater than 100 µM.

For the compound `Cc1c(N2C(=O)C(Cl)C2/C=C/c2ccccc2)c(=O)n(-c2ccccc2)n1C` (stereo not given), the TGI was found to be 47 µM.

`CC[C@@H](C)[C@H](NC(=O)[C@H](Cc1ccccc1)NCC(F)(F)F)C(=O)OC(C)(C)C` gave a TGI greater than 100 µM.

As to `Nc1ccccc1CCN1CCN(CCCc2ccccc2)CC1`, the TGI is greater than 100 µM.

With `O=c1oc2ccccc2c(Nc2ccc3c(c2)Sc2ccccc2O3)c1[N+](=O)[O-]`, the TGI was greater than 100 µM.

The test system of a further assay is HL-60(TB) leukemia. The assay can be described thus: DTP human tumour cell line panel, 48 h.
As for `O=C(O)CO[C@@]12C#C/C=C\C#C[C@@H]3N(C(=O)Oc4ccccc4)c4ccccc4[C@]14O[C@@]34CCC2`, the TGI was greater than 100 µM.

`N[C@@H]1CCN(c2c(F)cc3c(=O)c(C(=O)O)cn4c3c2Oc2c-4ccc3c2ccc2ccccc23)C1` showed a TGI greater than 100 µM.

Compound `COc1c(=O)cc2cc[nH]c3cc[nH]c1c23` yielded a TGI greater than 100 µM.

Turning to `CCCCC1(NN=C2CCCCC2)C(=O)N(c2ccccc2)N(c2ccccc2)C1=O`, the TGI is 38.4 µM.

In turn, `Cc1nc2ccc(Br)cc2c(=O)n1-c1nnc(C(C)(C)C)s1` displayed a TGI greater than 10 µM.

As for `Cc1ccc(C2(O)CSC(=NC34CC5CC(CC(C5)C3)C4)N2C(P(=O)(O)O)P(=O)(O)O)cc1` (stereo not given), the TGI is greater than 100 µM.

Compound `CCOC(=O)c1sc(=S)n(-c2ccc(Cl)cc2)c1-n1cc(-c2ccccc2)c(C#N)c1N` came in with a TGI greater than 100 µM.

`COC1(OC)N=C(N)C2(C#N)C(c3ccccc3)NC3=C(CCC3)C12C#N` (stereo not given) yielded a TGI greater than 100 µM.

With `COC(=O)[C@@H]1C[C@H]2OC(=O)CC[C@]2(C)O[C@H]1[C@H]1O[C@@](C)(O)CCC[C@H]1C`, the TGI worked out at 30.6 µM.

Compound `CN(/N=C/c1ccc(C(=O)O)cc1)C1=NCCCCN1` returned a TGI greater than 100 µM.

As for `Cc1c(N2C(=O)C(Cl)C2/C=C/c2ccccc2)c(=O)n(-c2ccccc2)n1C` (stereo not given), the TGI came to 45.3 µM.

`CC[C@@H](C)[C@H](NC(=O)[C@H](Cc1ccccc1)NCC(F)(F)F)C(=O)OC(C)(C)C` came in with a TGI greater than 100 µM.

In the case of `Nc1ccccc1CCN1CCN(CCCc2ccccc2)CC1`, the TGI is greater than 100 µM.

Regarding `O=c1oc2ccccc2c(Nc2ccc3c(c2)Sc2ccccc2O3)c1[N+](=O)[O-]`, the TGI turned out to be 49.7 µM.

The next assay deals with SNB-75 CNS. The assay can be described thus: DTP human tumour cell line panel, 48 h.
For `CCCCC1(NN=C2CCCCC2)C(=O)N(c2ccccc2)N(c2ccccc2)C1=O`, the TGI is greater than 100 µM.

`Cc1nc2ccc(Br)cc2c(=O)n1-c1nnc(C(C)(C)C)s1` registered a TGI greater than 10 µM.

For `Cc1ccc(C2(O)CSC(=NC34CC5CC(CC(C5)C3)C4)N2C(P(=O)(O)O)P(=O)(O)O)cc1` (stereo not given), the TGI is greater than 100 µM.

For `CCOC(=O)c1sc(=S)n(-c2ccc(Cl)cc2)c1-n1cc(-c2ccccc2)c(C#N)c1N`, the TGI amounted to 53.6 µM.

Take `CN(/N=C/c1ccc(C(=O)O)cc1)C1=NCCCCN1`: the TGI was greater than 100 µM.

With `Cc1c(N2C(=O)C(Cl)C2/C=C/c2ccccc2)c(=O)n(-c2ccccc2)n1C` (stereo not given), the total growth inhibition concentration (TGI) is 87.3 µM.

Compound `O=c1oc2ccccc2c(Nc2ccc3c(c2)Sc2ccccc2O3)c1[N+](=O)[O-]` displayed a total growth inhibition concentration (TGI) of 58.3 µM.

In another assay the test system is SR leukemia. The assay can be described thus: DTP human tumour cell line panel, 48 h.
Turning to `O=C(O)CO[C@@]12C#C/C=C\C#C[C@@H]3N(C(=O)Oc4ccccc4)c4ccccc4[C@]14O[C@@]34CCC2`, the TGI is greater than 100 µM.

In the case of `N[C@@H]1CCN(c2c(F)cc3c(=O)c(C(=O)O)cn4c3c2Oc2c-4ccc3c2ccc2ccccc23)C1`, the TGI was greater than 100 µM.

Consider `COc1c(=O)cc2cc[nH]c3cc[nH]c1c23`, for which the TGI is greater than 100 µM.

For `CCCCC1(NN=C2CCCCC2)C(=O)N(c2ccccc2)N(c2ccccc2)C1=O`, the TGI came out at 32.2 µM.

`Cc1nc2ccc(Br)cc2c(=O)n1-c1nnc(C(C)(C)C)s1` registered a TGI greater than 10 µM.

Compound `Cc1ccc(C2(O)CSC(=NC34CC5CC(CC(C5)C3)C4)N2C(P(=O)(O)O)P(=O)(O)O)cc1` (stereo not given) displayed a TGI greater than 100 µM.

As to `CCOC(=O)c1sc(=S)n(-c2ccc(Cl)cc2)c1-n1cc(-c2ccccc2)c(C#N)c1N`, the total growth inhibition concentration (TGI) was 46.7 µM.

Compound `COC1(OC)N=C(N)C2(C#N)C(c3ccccc3)NC3=C(CCC3)C12C#N` (stereo not given) yielded a TGI greater than 100 µM.

`COC(=O)[C@@H]1C[C@H]2OC(=O)CC[C@]2(C)O[C@H]1[C@H]1O[C@@](C)(O)CCC[C@H]1C` gave a TGI greater than 50 µM.

Regarding `CN(/N=C/c1ccc(C(=O)O)cc1)C1=NCCCCN1`, the TGI is greater than 100 µM.

For the compound `Cc1c(N2C(=O)C(Cl)C2/C=C/c2ccccc2)c(=O)n(-c2ccccc2)n1C` (stereo not given), the TGI amounted to 43.9 µM.

`CC[C@@H](C)[C@H](NC(=O)[C@H](Cc1ccccc1)NCC(F)(F)F)C(=O)OC(C)(C)C` registered a total growth inhibition concentration (TGI) greater than 100 µM.

The compound `Nc1ccccc1CCN1CCN(CCCc2ccccc2)CC1` came in with a TGI greater than 100 µM.

`O=c1oc2ccccc2c(Nc2ccc3c(c2)Sc2ccccc2O3)c1[N+](=O)[O-]` displayed a TGI of 57.3 µM.

The next assay has as its system OVCAR-8 ovarian. The assay can be described thus: DTP human tumour cell line panel, 48 h.
In turn, `O=C(O)CO[C@@]12C#C/C=C\C#C[C@@H]3N(C(=O)Oc4ccccc4)c4ccccc4[C@]14O[C@@]34CCC2` came in with a TGI greater than 100 µM.
